Test results reported in ChEMBL document CHEMBL1201862, “PubChem BioAssay data set” (2004).
“And” between values parts separate entries of the source, which are not always exact repeats. Equal entries are not always repeated.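 All cell lines were grown in 96-well plates and treated with compound for 48 hours. Abbreviation: GI50, concentration required for 50% inhibition of growth.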 The source made the active and inactive calls. Cut-off read from the data, not from the text of the source: active = GI50 up to about 1.1 µM and inactive = higher.

Key:
Assay in all cases: DTP human tumour cell line panel, 48 h
[1] = system: SF-295
[2] = system: SK-MEL-5
[3] = system: SNB-75
[4] = system: U-251
[5] = system: RPMI-8226
[6] = system: UO-31
[7] = system: NCI-H522
[8] = system: SN12C
[9] = system: M14
[10] = system: MDA-MB-231
[11] = system: LOX IMVI
[12] = system: MDA-MB-435
[13] = system: CAKI-1
[14] = system: SK-MEL-28
[15] = system: SW-620
[16] = system: OVCAR-4
[17] = system: NCI-H23
[18] = system: SK-MEL-2
[19] = system: COLO 205
[20] = system: T47D
[21] = system: IGROV-1
[22] = system: RXF 393
[23] = system: OVCAR-5
[24] = system: HCT-15
[25] = system: HCT-116
[26] = system: ACHN
[27] = system: MCF7
[28] = system: HCC 2998
[29] = system: A549
[30] = system: PC-3
[31] = system: TK-10
[32] = system: SF-268
[33] = system: 786-0
[34] = system: NCI/ADR-RES
[35] = system: KM12
[36] = system: BT-549
[37] = system: MOLT-4
[38] = system: SK-OV-3
[39] = system: NCI-H460
[40] = system: Malme-3M
[41] = system: EKVX
[42] = system: HOP-92
[43] = system: UACC-257
[44] = system: OVCAR-3
[45] = system: SF-539
[46] = system: K562
[47] = system: A498
[48] = system: NCI-H226
[49] = system: SNB-19
[50] = system: MDA-N
[51] = system: HOP-62
[52] = system: Hs-578T
[53] = system: CCRF-CEM
[54] = system: HL-60
[55] = system: SR
[56] = system: OVCAR-8
[57] = system: UACC-62
[58] = system: HT-29
[59] = system: DU-145

## C/C=C\C(CC(=O)OC)CC(=O)N(CCC1CN(S(=O)(=O)C(F)(F)F)c2ccccc21)Cc1ccc(OC)cc1OC (centres undefined)
[1]
  GI50: > 100 µM (inactive)
[2]
  GI50: > 100 µM (inactive)
[3]
  GI50: > 100 µM (inactive)
[4]
  GI50: > 100 µM (inactive)
[5]
  GI50: 61.7 µM (inactive)
[6]
  GI50: > 100 µM (inactive)
[7]
  GI50: 57.3 µM (inactive)
[8]
  GI50: > 100 µM (inactive)
[9]
  GI50: > 100 µM (inactive)
[10]
  GI50: > 100 µM (inactive)
[11]
  GI50: > 100 µM (inactive)
[12]
  GI50: 35.7 µM (inactive)
[13]
  GI50: > 100 µM (inactive)
[14]
  GI50: > 100 µM (inactive)
[15]
  GI50: > 100 µM (inactive)
[16]
  GI50: 54.7 µM (inactive)
[17]
  GI50: > 100 µM (inactive)
[18]
  GI50: > 100 µM (inactive)
[19]
  GI50: > 100 µM (inactive)
[20]
  GI50: > 100 µM (inactive)
[21]
  GI50: > 100 µM (inactive)
[22]
  GI50: > 100 µM (inactive)
[23]
  GI50: > 100 µM (inactive)
[24]
  GI50: > 100 µM
[25]
  GI50: 76.2 µM (inactive)
[26]
  GI50: > 100 µM (inactive)
[27]
  GI50: > 100 µM (inactive)
[28]
  GI50: > 100 µM (inactive)
[29]
  GI50: 77.4 µM (inactive)
[30]
  GI50: 63 µM (inactive)
[31]
  GI50: > 100 µM (inactive)
[32]
  GI50: > 100 µM (inactive)
[33]
  GI50: > 100 µM (inactive)
[34]
  GI50: > 100 µM (inactive)
[35]
  GI50: 45.1 µM (inactive)
[36]
  GI50: > 100 µM (inactive)
[37]
  GI50: > 100 µM (inactive)
[38]
  GI50: > 100 µM (inactive)
[39]
  GI50: 73.1 µM (inactive)
[40]
  GI50: > 100 µM (inactive)
[41]
  GI50: > 100 µM (inactive)
[42]
  GI50: > 100 µM (inactive)
[43]
  GI50: > 100 µM (inactive)
[44]
  GI50: > 100 µM (inactive)
[45]
  GI50: > 100 µM (inactive)
[46]
  GI50: 96.6 µM (inactive)
[47]
  GI50: > 100 µM (inactive)
[48]
  GI50: > 100 µM (inactive)
[49]
  GI50: > 100 µM (inactive)
[50]
  GI50: > 100 µM (inactive)
[51]
  GI50: > 100 µM (inactive)

## Cc1ccc(OCC2OC(n3cnc4c(Cl)ncnc43)CC2Oc2ccc(C)cc2)cc1 (centres undefined)
[52]
  GI50: 6.84 µM (inactive) and 4.7 µM (inactive)
[1]
  GI50: 20 µM (inactive) and 14.9 µM (inactive)
[2]
  GI50: 15.4 µM (inactive) and 18.7 µM (inactive)
[3]
  GI50: 26.1 µM (inactive) and 15.8 µM (inactive)
[4]
  GI50: 1.97 µM (inactive) and 2.55 µM (inactive)
[5]
  GI50: 2.69 µM (inactive) and 5.31 µM (inactive)
[7]
  GI50: 2.27 µM (inactive) and 1.71 µM (inactive)
[10]
  GI50: 9.51 µM (inactive) and 5.35 µM (inactive)
[13]
  GI50: 2.21 µM (inactive) and 1.94 µM (inactive)
[53]
  GI50: 4.78 µM (inactive) and 5.09 µM (inactive)
[14]
  GI50: 1.71 µM (inactive) and 2.13 µM (inactive)
[15]
  GI50: 2.07 µM (inactive) and 3.43 µM (inactive)
[18]
  GI50: 12.4 µM (inactive) and 17.3 µM (inactive)
[23]
  GI50: 26.4 µM (inactive) and 24.9 µM (inactive)
[54]
  GI50: 2.29 µM (inactive) and 1.72 µM (inactive)
[31]
  GI50: 30.5 µM (inactive) and 45 µM (inactive)
[32]
  GI50: 7.91 µM (inactive) and 4.74 µM (inactive)
[55]
  GI50: 2.66 µM (inactive) and 3.29 µM (inactive)
[33]
  GI50: 31.8 µM (inactive) and 17.4 µM (inactive)
[34]
  GI50: 12.4 µM (inactive) and 19.2 µM (inactive)
[36]
  GI50: 20.2 µM (inactive) and 18.5 µM (inactive)
[37]
  GI50: 2.48 µM (inactive) and 2.49 µM (inactive)
[38]
  GI50: 29.8 µM (inactive) and 20 µM (inactive)
[56]
  GI50: 8.93 µM (inactive) and 8.3 µM (inactive)
[41]
  GI50: 3.06 µM (inactive) and 2.84 µM (inactive)
[45]
  GI50: 22.9 µM (inactive) and 15.8 µM (inactive)
[46]
  GI50: 4.92 µM (inactive) and 2.99 µM (inactive)
[48]
  GI50: 11.9 µM (inactive) and 20.8 µM (inactive)

## CCN(CC)c1ccc2cc(C(=O)Nc3ccccc3OC)c(=N)oc2c1
[52]
  GI50: 22.1 µM (inactive)
[1]
  GI50: 33.9 µM (inactive)
[2]
  GI50: 32.1 µM (inactive)
[4]
  GI50: 10.1 µM (inactive)
[5]
  GI50: 15.9 µM (inactive)
[6]
  GI50: 0.321 µM (active)
[7]
  GI50: 10.4 µM (inactive)
[9]
  GI50: 35.2 µM (inactive)
[11]
  GI50: 22.9 µM (inactive)
[12]
  GI50: 34.2 µM (inactive)
[13]
  GI50: 23.7 µM (inactive)
[53]
  GI50: 2.89 µM (inactive)
[14]
  GI50: 32.9 µM (inactive)
[15]
  GI50: 8.67 µM (inactive)
[16]
  GI50: 27.5 µM (inactive)
[17]
  GI50: 20.4 µM (inactive)
[57]
  GI50: 25.2 µM (inactive)
[18]
  GI50: 59.7 µM (inactive)
[19]
  GI50: 24.8 µM (inactive)
[21]
  GI50: 7.55 µM (inactive)
[58]
  GI50: 12.9 µM (inactive)
[23]
  GI50: 44.3 µM (inactive)
[24]
  GI50: 19.7 µM
[25]
  GI50: 15.4 µM (inactive)
[26]
  GI50: 11.3 µM (inactive)
[27]
  GI50: 16.3 µM (inactive)
[28]
  GI50: 21.8 µM (inactive)
[29]
  GI50: 21.8 µM (inactive)
[54]
  GI50: 7.5 µM (inactive)
[30]
  GI50: 11.8 µM (inactive)
[32]
  GI50: 8.15 µM (inactive)
[55]
  GI50: 5.16 µM (inactive)
[33]
  GI50: 14.7 µM (inactive)
[34]
  GI50: 23.7 µM (inactive)
[59]
  GI50: 28.2 µM (inactive)
[35]
  GI50: 33.1 µM (inactive)
[36]
  GI50: 26.6 µM (inactive)
[37]
  GI50: 3.24 µM (inactive)
[38]
  GI50: 72.3 µM (inactive)
[39]
  GI50: 5.16 µM (inactive)
[56]
  GI50: 3.61 µM (inactive)
[40]
  GI50: 32.3 µM (inactive)
[41]
  GI50: 32.8 µM (inactive)
[43]
  GI50: 40.8 µM (inactive)
[44]
  GI50: 43.2 µM (inactive)
[45]
  GI50: 46.6 µM (inactive)
[46]
  GI50: 18.5 µM (inactive)
[47]
  GI50: 31.3 µM (inactive)
[49]
  GI50: 16.1 µM (inactive)
[51]
  GI50: 12 µM (inactive)
